Where two headings read alike, the source gives them in different places.

These results are taken from US11286268B1, “EIF4E-inhibiting compounds and methods” (EFFECTOR THERAPEUTICS, INC., priority 2019, dated 2022).

This assay addresses recombinant eIF4E (Homo sapiens (Human), UniProt P06730). The assay can be described thus: Fluorescence polarization competition assay for eIF4E binding potency. Summed up:
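IC50 derived from fluorescence polarization over an 8-point, 3-fold compound series after 30 min room-temperature equilibration in the dark. Mix: eIF4E 75 nM pre-bound 5 min to 20 nM EDA-m^7GDP-ATTO-550; buffer 20 mM Tris pH 7.5, 100 mM NaCl, 1 mM DTT, 0.02% Tween-20; DMSO 1%.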
For orientation: Polarisation of emitted light reports the rotation of a fluorescent probe.

[1] abbreviates: fluorescence polarization competition, 75 nM recombinant eIF4E, 20 nM EDA-m7GDP-ATTO-550, IC50 class, read-out: elF4E FP.
Where [2] appears, read: inhibition of eIF4E/EDA-m7GDP-ATTO-550 binding by 50%, Table 4B calculated values, read-out: IC50.
[3] abbreviates: inhibition of eIF4E/EDA-m7GDP-ATTO-550 binding, calculated IC50 values, Table 4B, read-out: IC50.

Sequence of recombinant eIF4E (P06730 whole entry): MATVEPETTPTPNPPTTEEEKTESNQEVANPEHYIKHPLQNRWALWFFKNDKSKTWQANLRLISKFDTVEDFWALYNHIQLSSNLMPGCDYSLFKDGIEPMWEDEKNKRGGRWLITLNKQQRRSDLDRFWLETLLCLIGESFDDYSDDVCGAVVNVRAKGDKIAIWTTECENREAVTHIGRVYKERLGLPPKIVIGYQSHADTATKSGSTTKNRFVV

On to `Cc1ncc(F)cc1-c1c(C(F)(F)F)cc2nc(C)n(CCOc3ccc(Cl)cc3-c3ccnc4c(C(=O)O)csc34)c(=O)c2c1C#N` [compound 847], for which the IC50 runs as follows: under setting [1], less than 50 nM; under setting [2], 44 nM.
For `Cc1nc2cnc(N(C)C3CCN(C4(C(F)(F)CO)CC4)CC3)c(C#N)c2c(=O)n1CC#Cc1ccc(Cl)cc1-c1ccnc2c(C(=O)O)csc12` [compound 1131] the same measures were less than 50 nM and 14.7 nM.
The matching figures for `Cc1c(CCOc2ccc(Cl)cc2-c2ccnc3c(C(=O)O)csc23)c(=O)c2c(C#N)cc(C(F)(F)F)cc2n1C` [compound 180]: less than 50 nM and 47.7 nM.
The matching figures for `O=C(O)c1cccc(-c2cc(Cl)ccc2OCCn2cnc3nccnc3c2=O)c1` [compound 19]: 50 to 1000 nM and 838 nM.
For `Cc1cc(-c2cc(N3CC(F)(F)C3)ccc2OCCn2c(C)nc3cc(C(F)(F)F)c(N4CC(F)(F)C4)c(C#N)c3c2=O)c2scc(C(=O)O)c2n1` [compound 2036], under setting [3], the IC50 was 38.4 nM.
Turning to `Cc1nc2cc(Cl)c(OC(F)F)c(C#N)c2c(=O)n1CCOc1ccc(Cl)cc1-c1ccnc2c(C(=O)O)csc12` [compound 546], the IC50 reads like this: under setting [1], less than 50 nM; under setting [2], 43.6 nM.
The matching figures for `Cc1cc(-c2cc(Cl)ccc2OCCn2c(C)nc3cc(-c4cccnc4)cc(C#N)c3c2=O)c2scc(C(=O)O)c2n1` [compound 654]: less than 50 nM and 3.12 nM.
The matching figures for `O=C(O)c1cccc(-c2cc(Cl)ccc2OCCn2cnc3cnc(-n4cccn4)cc3c2=O)c1` [compound 136]: 50 to 1000 nM and 199 nM.
In the case of `Cc1nc2cnc(OC3CCN(C4CC(F)(F)C4)CC3)c(C#N)c2c(=O)n1CCOc1ccc(Cl)cc1-c1ccnc2c(C(=O)O)csc12` [compound 1543], under setting [3], the IC50 was 20.5 nM.
As to `Cc1nc2cc(C(F)(F)F)cc(C#N)c2c(=O)n1CCOc1ccc(Cl)cc1-c1ccnc2c(C(=O)O)c(C(F)(F)F)sc12` [compound 666], the IC50 was 50 to 1000 nM under setting [1] and 268 nM under setting [2].
With `Cc1nc2cnc(OC3CCN(CCF)CC3)c(C#N)c2c(=O)n1CCOc1ccc(Cl)cc1-c1ccnc2c(C(=O)O)csc12` [compound 1479], the IC50 under setting [3] is 16.7 nM.
For the compound `Cc1nc2cc(C(F)(F)F)cc(C#N)c2c(=O)n1CCOc1[nH]c(=O)c(Cl)cc1-c1ccnc2c(C(=O)O)csc12` [compound 356], the IC50 is, setting by setting: under setting [1], greater than 1000 nM; under setting [2], 1220 nM.
For `O=C(O)c1cccc(-c2cc(Cl)ccc2OCCc2cc(C(F)(F)F)nc3nc(Nc4ccccc4)[nH]c(=O)c23)c1` [compound 178] the same measures were 50 to 1000 nM and 140 nM.
For `Cn1cc(-c2cc(Cl)ccc2OCCn2cnc3cnc(C#N)cc3c2=O)cc1C(=O)O` [compound 82] the same measures were greater than 1000 nM and 1660 nM.
The matching figures for `Cc1nc2ccc(OC(F)F)c(C#N)c2c(=O)n1CCOc1ccc(Cl)cc1-c1ccnc2c(C(=O)O)csc12` [compound 236]: less than 50 nM and 20.3 nM.
Turning to `Cc1nc2cnc(C3=CCN(CC(F)(F)F)CC3)c(C#N)c2c(=O)n1CCOc1ccc(Cl)cc1-c1ccnc2c(C(=O)O)csc12` [compound 889], the IC50 under setting [1] is less than 50 nM and the IC50 under setting [2] was 12.4 nM.
For `N#Cc1cc2c(=O)n(CCOc3ccc(Cl)cc3-c3cc4c(c(C(=O)O)c3)OCC4)cnc2cn1` [compound 104] the same measures were 50 to 1000 nM and 586 nM.
Regarding `CCc1cc(-c2cc(Cl)ccc2OCCn2c(C)nc3cc(C(F)(F)F)c(N4CCN(C)CC4)c(C#N)c3c2=O)c2scc(C(=O)O)c2n1` [compound 1085], the IC50 was 50 to 1000 nM under setting [1] and 54.3 nM under setting [2].
`CCc1cc(-c2cc(Cl)ccc2OCCn2c(C)nc3cnc(N4CCN(C)C5CC54)c(C#N)c3c2=O)c2scc(C(=O)O)c2n1` (stereo not shown) [compound 1219]: the IC50 by setting is: under setting [1], less than 50 nM; under setting [3], 3.99 nM.
For the compound `Cc1cc(-c2cc(Cl)ccc2OCCn2c(C)nc3cc(N4C[C@@H](C)N(C)[C@@H](C)C4)c(F)c(C#N)c3c2=O)c2sc(C)c(C(=O)O)c2n1` [1090b], the IC50 under setting [2] was 503 nM.
As for `CCc1ncc(-c2c(C(F)(F)F)cc3nc(C)n(CCOc4ccc(Cl)cc4-c4cc(C)nc5c(C(=O)O)csc45)c(=O)c3c2C#N)cc1F` [compound 1911], the IC50 under setting [3] is 4.03 nM.
For the compound `Cc1cc(-c2cc(Cl)ccc2OCCn2c(C)nc3cc(CN(C)C)c(C)c(C#N)c3c2=O)c2scc(C(=O)O)c2n1` [compound 650], the IC50 is less than 50 nM under setting [1] and 28.3 nM under setting [2].
Regarding `Cc1nc2cnc(N(C)C3CCN(C4CC(F)(F)C4)CC3)c(C#N)c2c(=O)n1CC#Cc1ccc(Cl)cc1-c1ccnc2c(C(=O)NS(=O)(=O)C(F)(F)F)csc12` [compound 1818], the IC50 under setting [3] was 13 nM.
With `Cc1cc(-c2cc(Cl)ccc2OCCn2c(C)nc3c(CN4CCN(C)CC4)c(C(F)(F)F)cc(C#N)c3c2=O)c2scc(C(=O)O)c2n1` [compound 483], the IC50 under setting [1] is less than 50 nM and the IC50 under setting [2] is 42.1 nM.
For `Cc1nc2cc(C(F)(F)F)cc(C#N)c2c(=O)n1CCOc1ccc(Cl)cc1-c1coc2c(C(=O)O)cccc12` [compound 300] the same measures were less than 50 nM and 24.3 nM.
For `Cc1nc2cc(Cl)c(Cl)c(Cl)c2c(=O)n1CCOc1ccc(Cl)cc1-c1ccnc2c(C(=O)O)csc12` [compound 208] the same measures were 50 to 1000 nM and 103 nM.
Take `Cc1nc2cc(C(F)(F)F)cc(C#N)c2c(=O)n1CCOc1ccc(Cl)cc1-c1ccc(C(=O)O)c(C(=O)O)c1` [compound 158]: the IC50 is less than 50 nM under setting [1] and 48.3 nM under setting [2].
The matching figures for `Cc1cc(-c2cc(Cl)ccc2OCCn2c(C)nc3c(C)nc(C)c(C#N)c3c2=O)c2scc(C(=O)O)c2n1` [compound 492]: less than 50 nM and 29.7 nM.
Consider `N#Cc1cccc2nc(C(F)F)n(CCOc3ccc(Cl)cc3-c3cncn(CC(=O)O)c3=S)c(=O)c12` [compound 192], for which the IC50 is greater than 1000 nM under setting [1] and 1310 nM under setting [2].
For `COc1ccc2nc(C)n(CCOc3ccc(Cl)cc3-c3ccnc4c(C(=O)O)csc34)c(=O)c2c1C#N` [compound 404] the same measures were less than 50 nM and 10.1 nM.
For `COc1ccc(-c2csc3c(-c4cc(Cl)ccc4OCCn4c(C)nc5cnc(N6CCN(C)CC6)c(C#N)c5c4=O)ccnc23)cc1` [compound 1268], the IC50 under setting [3] is 472 nM.
In the case of `Cc1cc(-c2cc(Cl)ccc2OCCn2c(C)nc3cc(C(F)(F)F)c(C4CCNCC4)cc3c2=O)c2sc(C)c(C(=O)O)c2n1` [compound 877], the IC50 under setting [1] is 50 to 1000 nM and the IC50 under setting [2] is 234 nM.
Turning to `Cc1nc2cc(CN(C)C)c(F)c(C#N)c2c(=O)n1CCOc1ccc(Cl)cc1-c1ccnc2c(C(=O)O)csc12` [compound 517], the IC50 is, setting by setting: under setting [1], less than 50 nM; under setting [2], 35.7 nM.
For `Cc1cc(-c2cc(Cl)ccc2OCCn2c(C)nc3cc(C(F)(F)F)c(N4CC(=O)C4)nc3c2=O)c2scc(C(=O)O)c2n1` [compound 796] the same measures were less than 50 nM and 3.27 nM.
On to `Cc1nc2cc(C(F)(F)F)c(N3CCN(C)C(CO)C3)c(C#N)c2c(=O)n1CCOc1ccc(Cl)cc1-c1ccnc2c(C(=O)O)csc12` (stereo not shown) [compound 1261], for which, under setting [3], the IC50 is 33.6 nM.
As for `Cc1nc(N2CCN(C)CC2)c(C#N)c2c(=O)n(CCOc3ccc(Cl)cc3-c3ccnc4c(C(=O)O)csc34)c(C)nc12` [compound 448], the IC50 was less than 50 nM under setting [1] and 4.2 nM under setting [2].
With `Cc1sc2c(-c3cc(Cl)ccc3OCCn3c(C)nc4c(F)cc(C(F)F)c(C#N)c4c3=O)ccnc2c1C(=O)O` [compound 123], the IC50 runs as follows: under setting [1], less than 50 nM; under setting [2], 36.5 nM.
`Cc1nc2cnc(N3CCN([C@H]4C[C@@H](OC(F)F)C4)CC3)c(C#N)c2c(=O)n1CC#Cc1ccc(Cl)cc1-c1ccnc2c(C(=O)O)csc12` [compound 1511]: the IC50 under setting [3] is 23.2 nM.
As to `Cc1nc2cc(C(F)(F)F)cc(C#N)c2c(=O)n1CCOc1ccc(Cl)cc1-c1ccnc2c(C(=O)O)c[nH]c12` [compound 323], the IC50 under setting [1] fell in the range of 50 to 1000 nM and the IC50 under setting [2] is 82.6 nM.
For `Cc1cc(-c2cc(Cl)ccc2OCCn2c(C)nc3cnc(O)c(C#N)c3c2=O)c2scc(C(=O)O)c2n1` [compound 1004] the same measures were less than 50 nM and 22.5 nM.
With `Cc1c(C(F)(F)F)cc2nc(C)n(CCOc3ccc(Cl)cc3-c3ccnc4c(C(=O)O)csc34)c(=O)c2c1C#N` [compound 415], the IC50 was less than 50 nM under setting [1] and 14.3 nM under setting [2].
The matching figures for `Cc1nc2c(N3CCN(CC(F)F)C4CC43)ncc(C#N)c2c(=O)n1CCOc1ccc(Cl)cc1-c1ccnc2c(C(=O)O)csc12` (stereo not shown) [compound 818]: less than 50 nM and 13.1 nM.
The matching figures for `Cc1cc(-c2cc(Cl)ccc2OCCn2c(C)nc3cnc(-n4cccn4)c(C#N)c3c2=O)c2scc(C(=O)O)c2n1` [compound 984]: less than 50 nM and 11.5 nM.
For `Cc1cc(-c2cc(Cl)ccc2OCCn2c(C)nc3c(C)nc(-c4ccc(Cl)cc4)c(C#N)c3c2=O)c2scc(C(=O)O)c2n1` [compound 480] the same measures were less than 50 nM and 7.39 nM.
Regarding `Cc1nc2cnc(N(C)C3CCN([C@H]4C[C@@H]4C(F)(F)F)CC3)c(C#N)c2c(=O)n1CC#Cc1ccc(Cl)cc1-c1ccnc2c(C(=O)O)csc12` [compound 1724], the IC50 under setting [3] was 4.07 nM.
As to `Cc1cc(-c2cc(Cl)ccc2OCCn2c(C)nc3cnc(-c4ccccc4Cl)c(C#N)c3c2=O)c2scc(C(=O)O)c2n1` [compound 947], the IC50 reads like this: under setting [1], less than 50 nM; under setting [2], 23.7 nM.
